Assay [1] has as its system mouse fibroblasts. Briefly: Reprogramming of mouse fibroblasts with exogenous poly-Arg transcription factor proteins. It counts as cell-based. Conditions: cells incubated with transcription factor proteins plus agent. As to the method:
Mouse fibroblasts were grown in mESC medium supplemented with 8 μg/ml of either Oct4/Sox2/Klf4 or Oct4/Sox2/Klf4/Myc (all proteins comprising poly-Arg as described above) for 6-8 hours, washed, and incubated for 2-3 days in mESC media without the above-listed transcription factors. This (4-12 hours with, 1-3 days without) was repeated a number (1, 2, 3, 4, or more) of times and then the cells were cultured in mESC for two weeks.
Mouse fibroblasts were grown in mESC growth medium [Knockout DMEM (Invitrogen) supplemented with 10% ES-FBS+10% KSR, 0.1 mM 2-ME, 1% Glutamax, 1% Non-essential amino acids, 1% EmbryoMax ESC Qualified Nucleosides (Millipore), and 10^3 units/ml LIF (ESGRO, Chemicon International)] supplemented with 8 μg/ml of Oct4/Sox2/Klf4/Myc (all four transcription factors are tagged with poly-Arg […]; SEQ ID NO:2) for 4-12 hours, followed by culturing the cells in the absence of the Oct4/Sox2/Klf4/Myc polypeptides for one day. This procedure was repeated 4 times. The cells were then cultured in mESC medium for another two weeks. iPSC clones were detected by colony morphology and expression of pluripotency markers. An intermediate iPSC clone, which expresses ALP but not Oct4 (Oct4), was dissociated with Trypsin-EDTA. The clone was then expanded by continuous culturing with regular mESC medium or medium supplemented with 0.5 μM PD0325901, 3 μM CHIR99021, 0.5 μM A-83-01. The number of Oct4-positive colonies were counted 2 weeks after small molecule treatment (FIG. 14).

Assay [2] relates to MEFs (129, ROSA26+/-/OG2+/-). Put plainly: Reprogramming of MEFs transduced with Oct4/Sox2/Klf4 or Oct4/Klf4 with CHIR99021. It is filed as cell-based, mouse. As to the method:
Cell Culture and Viral Transduction: MEFs were derived from 129S2/SvPasCrlf and ROSA26^+/−/OG2^+/− mice according to the protocol reported on WiCell Research Institute website: “Introduction to human embryonic stem cell culture methods”. ROSA26^+/−/OG2^+/− heterozygous transgenic mice carry GFP reporter gene under the control of the Oct4 promoter (Oct4-GFP) and the ubiquitously expressed neo/lacZ transgene [Do J T, Scholer H R, Stem Cells, 22:941-949 (2004)]. Animal experiments were performed according to the Animal Protection Guidelines of the Max Planck Institute for Biomolecular Research, Germany. MEFs were transduced by Oct4, Klf4 and Sox2 three factors, or two-factor combinations of the pMXs-based retroviruses encoding mouse Oct4, Klf4 and Sox2 (Addgene) as previously described [Takahashi K, Yamanaka S, Cell, 126:663-676 (2006)]. […] MEFs transduced with Oct4/Klf4/Sox2 (lx 10^4 cells/well together with 10^5 cells/well CF1 feeders in 6-well plates) were then treated with GSK-3 inhibitor CHIR99021 (Stemgent) for two weeks, and EGFP positive colonies were picked up at the third week after treatment. MEFs transduced with Oct4/Klf4 (lx 10^5 cells/well in 6-well plates) were treated with 10 μM CHIR99021 for four weeks, GFP positive colonies were picked up and expanded at the fourth to fifth week after treatment.

Assay [3] concerns MEFs. Put plainly: Real-time PCR of pluripotency genes in untransduced MEFs after small molecule treatment. It counts as cell-based, mouse. Conditions: 10 μM CHIR99021, three days.
Description: To detect the expression of pluripotency genes by MEFs and NHEKs that were treated with small molecules, untransduced MEFs and NHEKs were treated for three days in mESC growth medium with 10 μM CHIR99021 or in hES cell medium with either combination of 10 μM CHIR99021 and 2 μM Parnate or combination of 10 μM CHIR99021, 2 μM Parnate, 0.5 μM PD0325901 and 2 μM SB431542. For the semi-quantitative and quantitative RT-PCR analyses, RNA was extracted from miPSCs-OK, hiPSCs-OK, MEFs, treated MEFs and treated NHEKs using the RNeasy Plus Mini Kit in combination with QIAshredder (Qiagene). Reverse transcription was performed with 1 μg RNA using iScript™ cDNA Synthesis Kit (BioRad). […] Real-time PCR was carried out using iQ SYBR Green Supermix (BioRad). […] The expression of genes of interest was normalized to that of GAPDH in all samples.
Assay [4] has as its system Normal Human Epidermal Keratinocytes (NHEKs). Briefly: Reprogramming of lentivirally transduced NHEKs (TRA-1-81 colonies). It counts as cell-based. Particulars: 0.25 mM NaB vs 0.5 mM VPA. The source says:
Among several readily available primary human somatic cell types, keratinocytes that can be easily isolated from human skin or hair follicle represent an attractive cell source for reprogramming, because they endogenously express Klf4 and cMyc, and were reported to be reprogrammed more efficiently using the conventional four TFs or three TFs (without Myc) (Aasen et al., Nat Biotechnol 26, 1276-1284 (2008); Maherali et al., Cell Stem Cell 3, 340-345 (2008)). […] Furthermore, we have shown that such dual pathway inhibition could also enhance reprogramming of human keratinocytes by two exogenous TFs (i.e. OK) with two small molecules, Parnate (an inhibitor of lysine-specific demethylase 1) and CHIR99021 (a GSK3 inhibitor) (Li et al., Stem Cells 27, 2992-3000 (2009)). However, such 2-TFs reprogramming process was very inefficient and complex (e.g. involving two exogenous TFs and four chemicals), and reprogramming with even one less TF appeared daunting. Toward this end, we developed a step-wise strategy in refining reprogramming condition and identifying new reprogramming chemical entities. […]

Assay [5] concerns mouse embryonic fibroblasts (129 or OG2 MEFs). Briefly: Screen for iPSC generation from MEFs transduced with Oct4/Klf4 (OK). It is filed as cell-based. As to the method: Unmodified MEFs derived from E13-14 embryos of the 129 mice were used for the initial screen. MEFs were plated on Matrigel at 3.5×10^4 cells/well of a 6-well plate and transduced with OK (retroviral vectors expressing Oct4 and Klf4) alone. Within 14-21 days, treated cells were assessed for the appearance of colonies that had the characteristic embryonic stem cell (ESC) colony morphology and were positive for the pluripotency marker alkaline phosphatase (ALP). Such OK-transduced cells generated only a few small non-compact colonies, which were weakly positive for ALP expression. These colonies initially appeared within 21 days after viral transduction and were difficult to expand. Therefore, such assay system offered a clean background for the identification of small molecules having desirable reprogramming inducing activity. Using this system, compounds from a library of around 2000 known small molecules (see Experimental Procedures below) were screened and were identified as hits when they induced the appearance of ESC colonies that were strongly positive for ALP within 14-21 days after treatment. This image-based method provided a more accurate assessment of reprogramming as compared to homogenous reporter-based assay. BIX appeared to have the strongest effect with reproducible induction of more than 1-2 compact ESC-like colonies with high ALP expression. We observed that when MEFs were treated with BIX after OK viral transduction, compact colonies with strong ALP expression could be readily detected within approximately 14-21 days. These cells were also positive for Nanog, Oct4 and SSEA-1 expression. […] However, the reprogramming efficiency in MEFs transduced with OK and treated with BIX was still low, about 2 colonies/3.5×10^4 cells, in comparison to the four factor-induced reprogramming of MEFs or the OK/BIX NPC reprogramming (Shi, Y. et al., Cell Stem Cell, 2:525-528 (2008)). Therefore, we conducted a second screen using a similar protocol, but where BIX was added to the basal media after OK viral transduction. This provided a more permissive platform to identify new small molecules that could further improve reprogramming efficiency. More importantly, this second screen could facilitate discovery of small molecules that impact reprogramming in a more specific manner, for example by acting on signal transduction pathways rather than on histone or DNA modifying enzymes. In this second screen, we again assayed the library of around 2000 known small molecules (see Experimental Procedures), and confirmed two compounds that were able to act in a synergistic manner with BIX to improve reprogramming based on the criteria of the screen. […] Therefore, RG108 was not pursued further for this study. Instead, we focused our phenotypic and functional characterization on another small molecule that was identified in the second screen, BayK, an L-calcium channel agonist. […] Therefore, BayK might play a more specific role in the reprogramming process. When 129 MEFs were transduced with empty retrovirus (negative control); no colonies observed. When 129 MEFs were transduced with OK without small molecules; few small flattened colonies with weak ALP expression present. […] When OK-transduced MEFs were treated with BIX in combination with BayK, a significant increase in the number of ALP^+ colonies that closely resemble the mESC morphology could be observed (˜7 colonies) as compared to OK-transduced MEFs treated with BIX alone (˜2 colonies).
Primary 12952/SvPasCrlf (primary screen) or ROSA26^+/−/OG2^+/− (secondary screen) MEFs were plated onto Matrigel (1:50; BD Biosciences, Bedford, Mass.) coated dishes at a density of 3.5×10^4 cells per well of a 6-well plate. Twenty-four hours later, these cells were transduced overnight with defined retroviruses at 37° C., 5% CO2. […] (all products were from Invitrogen, Carlsbad, Calif., except where mentioned). […]

The subject of assay [6] is mES R1 cells. Briefly: Proliferation assay. It is filed as cell-based, mouse. Particulars: 2 μM BayK, 1 μM BIX; 15, 24, 48 hours; vs DMSO. The method, then:
mES R1 cells were plated onto gelatin-coated 6-well plates at a density of 2×10^5 cells/well in complete mES cell media. Upon cell attachment, app. 12 hours, the cells were treated either with DMSO, 1 μM BIX, 2 μM BayK, and a combination of both, in triplicate. At 15, 24 and 48 hours, the cells were detached using trypsin, and counted using a hemocytometer. Trypan blue (Sigma-Aldrich, St. Louis, Mo.) was used for dead cell exclusion.

Assay [7] deals with OG2+/-/ROSA26+/- MEFs. Briefly: Assessment of SOX2 expression after compound treatment (RT-PCR). It is filed as cell-based, mouse. Conditions: 2 μM BayK, 1 μM BIX, 6 days. As to the method: OG2^+/−/ROSA26^+/− MEFs were plated onto 6-well plate at a density of 3.4×10^4 cells per well. On the following day, the cells were treated with DMSO, 1 μM BIX, 2 μM BayK, and a combination of both, in triplicate, for 6 days. The media was refreshed at day 3. RNA from each well was then isolated using the RNAeasy Mini Kit (Quiagen). Reverse transcription of the RNA was performed using the iScript™ cDNA Synthesis Kit (BioRad, Hercules, Calif.). Amplification of endogenous Sox2 was done using primers previously published (Takahashi, K., Okita, K., Nakagawa, M., and Yamanaka, S. (2007). Induction of pluripotent stem cells from fibroblast cultures. Nat Protoc 2, 3081-3089; Takahashi, K., and Yamanaka, S. (2006). Induction of pluripotent stem cells from mouse embryonic and adult fibroblast cultures by defined factors. Cell 126, 663-676) with Platinum PCR SuperMix (Invitrogen) on a Mastercycler® ep gradient PCR machine (Eppendorf).

Regarding `Cc1c[nH]c(-c2cnc(NCCNc3ccc(C#N)cn3)nc2-c2ccc(Cl)cc2Cl)n1` [CHIR99021], the “efficiency and speed of development of pluripotent cells” value in assay [1] was “improved efficiency and speed of development of pluripotent cells”. In assay [2] (Oct4/Klf4 transduction, 10 μM CHIR99021, 4-5 weeks), the “GFP positive colonies out of 10^5 OG2 MEFs” value is listed as “about six”. In addition, in assay [2] (Oct4/Sox2/Klf4-transduced MEFs, about 10 μM, from 0.03-0.08% without), the “reprogramming efficiency (GFP-positive colonies)” value is on record as 0.2-0.4 % of transduced MEFs. In assay [2] (Oct4/Sox2/Klf4 transduced MEFs, two weeks treatment, staining at third week), the “number of AP-positive mESC-like colonies” value is reported as “significantly increased the number of alkaline phosphase (AP)-positive mESC-like colonies in a dose-dependent manner”. Moreover, the “expression of Sox2 and Oct4 (real-time PCR)” value in assay [3] was “did not induce the expression of Sox2 and Oct4 in MEFs”.
On to `CCCC(=O)[O-].[Na+]` [NaB, sodium butyrate], for which the “generation of iPSCs under OK condition” value in assay [4] is “much more reliable and efficient than the previously reported 0.5 mM VPA”.
Take `COC(=O)C1=C(C)NC(C)=C([N+](=O)[O-])C1c1ccccc1C(F)(F)F` (stereo not shown) [BayK8644]: the “reprogramming efficiency (GFP+ colonies)” value in assay [5] (OG2 MEFs transduced with OK, FIG. 3) is given as “did not increase reprogramming efficiency above OK-transduced MEF control”. Further, the “reprogramming activity on OK-transduced MEFs” value in assay [5] (in the absence of BIX) is “no observable reprogramming activity on OK-transduced MEFs in the absence of BIX”. Also, the “proliferation of mES cells (cell number)” value in assay [6] was “does not lead to a change in proliferation”. Besides, the SOX2 expression result in assay [7] is given as “does not induce SOX2 expression”.

The record behind these values is patent US9771563B2, “Chemical approaches for generation of induced pluripotent stem cells” (The Scripps Research Institute, priority 2008, dated 2017).
